The source made the active and inactive calls. How the calls were made is not given here.

The test system of this test is S. aureus strains, lipase production inhibition. The experiment in a line: quorum-sensing-driven lipase output in S. aureus strains – NM300, NM400, MRSA3757, S. aureus quorum sensing inhibitors (AID 1506). To be noted: for inhibition: stronger effect = higher value.
[1] abbreviates: lipase inhibition, MRSA3757, at 12 µM.
The mark [2] stands for this setting: lipase inhibition, strain NM400, at 12 µM.

What is called inhibition is the percentage by which the read-out fell short of the control. Consider `CC1CCCN(C(C(=O)Nc2ccc3c(c2)OCCO3)c2ccccc2)C1` (stereo not given), for which the outcome (at 12 µM) is “inactive; agr3 active”. The inhibition reads like this: under setting [1], 0%; under setting [2], 68%.

With `CC1CCCN(C(C(=O)Nc2ccc3c(c2)OCO3)c2ccccc2)C1` (stereo not given), the outcome (at 12 µM) was “inactive; agr3 active”. The inhibition by setting is: under setting [1], 0%; under setting [2], 84%.

As for `Cc1c(Cl)cccc1Nc1ccccc1C(=O)O`, the inhibition by setting is: (at 30 µM) 80%; (lipase inhibition, strain NM300, at 30 µM) 90%.

As to `CCc1oc2ccccc2c1C(=O)c1cc(Br)c(O)c(Br)c1`, the inhibition is, setting by setting: (at 6 µM) 80%; (lipase inhibition, strain NM300, at 6 µM) 95%.

The record behind these values is PubChem BioAssay AID1506 (NMMLSC, 2009).
